Results reported in PubChem BioAssay AID248 (DTP/NCI, 2004).
Several values for one entry are separate records, joined by “and”; a condition that tells them apart may be missing. Equal values may be shown once. Toxic doses and inconclusive results are not listed. Cut-off read from the data, not from the text of the source: active = T/C of 150% or more; inactive = T/C below 125%.

System: L1210 leukemia ip in BDF1 mice, survival T/C
Test: NCI In Vivo Anticancer Drug Screen. Data for tumor model L1210 Leukemia (intraperitoneal) in B6D2F1 (BDF1) mice
Conditions: endpoint: mean survival time, higher = longer survival
In short: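 Survival endpoint. Drug-treated group vs vehicle group, expressed as T divided by C. Tumor passaged by transplantation.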

[1] = dose: 100.0 mg/kg/injection, schedule: Q01DX001 (ip), vehicle: Klucel (hydroxypropylcellulose) (HPC)
[2] = dose: 100.0 mg/kg/injection, schedule: Q01DX009 (ip), vehicle: Klucel (hydroxypropylcellulose) (HPC)
[3] = dose: 200.0 mg/kg/injection, schedule: Q01DX001 (ip), vehicle: Klucel (hydroxypropylcellulose) (HPC)
[4] = dose: 200.0 mg/kg/injection, schedule: Q01DX009 (ip), vehicle: Klucel (hydroxypropylcellulose) (HPC)
[5] = dose: 400.0 mg/kg/injection, schedule: Q01DX001 (ip), vehicle: Klucel (hydroxypropylcellulose) (HPC)
[6] = dose: 400.0 mg/kg/injection, schedule: Q01DX009 (ip), vehicle: Klucel (hydroxypropylcellulose) (HPC)
[7] = dose: 100.0 mg/kg/injection, schedule: Q04DX003 (ip), vehicle: Klucel (hydroxypropylcellulose) (HPC)
[8] = dose: 200.0 mg/kg/injection, schedule: Q04DX003 (ip), vehicle: Klucel (hydroxypropylcellulose) (HPC)
[9] = dose: 400.0 mg/kg/injection, schedule: Q04DX003 (ip), vehicle: Klucel (hydroxypropylcellulose) (HPC)
[10] = dose: 25.0 mg/kg/injection, schedule: Q01DX009 (ip), vehicle: saline with Tween-80
[11] = dose: 50.0 mg/kg/injection, schedule: Q01DX009 (ip), vehicle: saline with Tween-80
[12] = dose: 100.0 mg/kg/injection, schedule: Q01DX009 (ip), vehicle: saline with Tween-80
[13] = dose: 100.0 mg/kg/injection, schedule: Q04DX003 (ip), vehicle: saline with Tween-80
[14] = dose: 100.0 mg/kg/injection, schedule: Q04DX002 (ip), vehicle: Klucel (hydroxypropylcellulose) (HPC)
[15] = dose: 200.0 mg/kg/injection, schedule: Q04DX002 (ip), vehicle: Klucel (hydroxypropylcellulose) (HPC)
[16] = dose: 100.0 mg/kg/injection, schedule: Q01DX001 (ip), vehicle: saline
[17] = dose: 200.0 mg/kg/injection, schedule: Q01DX001 (ip), vehicle: saline
[18] = dose: 400.0 mg/kg/injection, schedule: Q01DX001 (ip), vehicle: saline
[19] = dose: 25.0 mg/kg/injection, schedule: Q04DX002 (ip), vehicle: Klucel (hydroxypropylcellulose) (HPC)
[20] = dose: 50.0 mg/kg/injection, schedule: Q04DX002 (ip), vehicle: Klucel (hydroxypropylcellulose) (HPC)
[21] = dose: 50.0 mg/kg/injection, schedule: Q01DX001 (ip), vehicle: saline
[22] = dose: 200.0 mg/kg/injection, schedule: Q04DX003 (ip), vehicle: saline with Tween-80
[23] = dose: 400.0 mg/kg/injection, schedule: Q04DX003 (ip), vehicle: saline with Tween-80

Measured: T/C

CCOC(=O)C(C(=O)OCC)C1c2ccccc2C([N+](=O)[O-])c2ccccc21 (centres undefined)
inactive: [1] 91 % of control | [2] 96 % of control | [3] 96 % of control | [4] 89 % of control | [5] 91 % of control | [6] 103 % of control

O=C(Nc1ccc(F)c([N+](=O)[O-])c1)Nc1cc([N+](=O)[O-])ccc1F
inactive: [7] 96 % of control | [8] 93 % of control | [9] 101 % of control

CCN(C(C)C)C(C)C
inactive: [10] 101 % of control | [11] 106 % of control | [12] 96 % of control | [13] 93 % of control

O=C(O)c1cc(Br)cc(I)c1Cl
inactive: [14] 102 % of control | [15] 94 % of control

O=C1COc2cc(O)c(O)cc21
inactive: [16] 104 % of control | [17] 103 % of control | [18] 104 % of control

CS(=O)(=O)OC1CCCCC1Sc1ccc(Br)cc1 (centres undefined)
inactive: [1] 103 % of control | [7] 101 % of control | [3] 101 % of control | [8] 101 % of control | [5] 101 % of control | [9] 106 % of control

Cn1ccnc1CC(C)(O)c1ccccc1 (centres undefined)
inactive: [1] 92 % of control | [2] 97 % of control and 98 % of control | [14] 96 % of control | [3] 97 % of control | [4] 108 % of control and 88 % of control | [15] 108 % of control | [6] 102 % of control | dose: 400.0 mg/kg/injection, schedule: Q04DX002 (ip), vehicle: Klucel (hydroxypropylcellulose) (HPC) 103 % of control

O=C1NC(=O)C2C3CCC(O3)C12 (centres undefined)
inactive: [19] 92 % of control and 98 % of control | [20] 96 % of control and 102 % of control | dose: 55.0 mg/kg/injection, schedule: Q01DX Z (ip), vehicle: methylcellulose (MC) 98 % of control | dose: 83.0 mg/kg/injection, schedule: Q01DX Z (ip), vehicle: methylcellulose (MC) 105 % of control | [14] 103 % of control and 98 % of control and 86 % of control | dose: 125.0 mg/kg/injection, schedule: Q01DX Z (ip), vehicle: methylcellulose (MC) 94 % of control | [15] 106 % of control

O=C(O)C1C(c2ccccc2)=C(c2ccccc2)c2ccccc21 (centres undefined)
inactive: dose: 25.0 mg/kg/injection, schedule: Q04DX003 (ip), vehicle: saline with Tween-80 92 % of control | dose: 50.0 mg/kg/injection, schedule: Q04DX003 (ip), vehicle: saline with Tween-80 100 % of control | [13] 95 % of control and 103 % of control

O=C(OCCCCCOC(=O)c1ccccc1O)c1ccccc1O
inactive: dose: 100.0 mg/kg/injection, schedule: Q01DX001 (ip), vehicle: other 91 % of control | [7] 92 % of control | dose: 200.0 mg/kg/injection, schedule: Q01DX001 (ip), vehicle: other 88 % of control | [8] 91 % of control | [9] 89 % of control

CN(C)c1ccc2nc3ccc(=[N+](C)C)cc-3sc2c1
inactive: dose: 5.0 mg/kg/injection, schedule: Q01DX Z (ip), vehicle: carboxymethylcellulose (CMC) 93 % of control and 90 % of control | dose: 10.0 mg/kg/injection, schedule: Q01DX Z (ip), vehicle: carboxymethylcellulose (CMC) 100 % of control and 92 % of control | dose: 12.5 mg/kg/injection, schedule: Q01DX009 (ip), vehicle: saline 107 % of control | dose: 20.0 mg/kg/injection, schedule: Q01DX Z (ip), vehicle: carboxymethylcellulose (CMC) 98 % of control and 92 % of control | dose: 25.0 mg/kg/injection, schedule: Q01DX001 (ip), vehicle: saline 102 % of control | dose: 25.0 mg/kg/injection, schedule: Q01DX009 (ip), vehicle: saline 94 % of control | dose: 40.0 mg/kg/injection, schedule: Q01DX Z (ip), vehicle: carboxymethylcellulose (CMC) 105 % of control | [21] 97 % of control | dose: 50.0 mg/kg/injection, schedule: Q01DX009 (ip), vehicle: saline 103 % of control | [16] 108 % of control

CCCCN1CCN(CCCC)C1=O
inactive: [14] 90 % of control | [15] 90 % of control

N#CCCP(=O)(CCC#N)CCP(=O)(CCC#N)CCC#N
inactive: [13] 91 % of control | [22] 91 % of control | [23] 94 % of control

Nc1ncncc1-c1ccccc1[N+](=O)[O-]
inactive: dose: 50.0 mg/kg/injection, schedule: Q01DX009 (ip), vehicle: Klucel (hydroxypropylcellulose) (HPC) 98 % of control | [2] 98 % of control | [4] 102 % of control

Clc1cc[c]([Sn]([O][Sn]([c]2ccc(Cl)cc2)([c]2ccc(Cl)cc2)[c]2ccc(Cl)cc2)([c]2ccc(Cl)cc2)[c]2ccc(Cl)cc2)cc1
inactive: [19] 107 % of control | [20] 91 % of control

CC1(C)OC(O)C(C(O)C(O)C(O)C(=O)O)O1 (centres undefined)
inactive: dose: 100.0 mg/kg/injection, schedule: Q04DX002 (ip), vehicle: saline 98 % of control | dose: 200.0 mg/kg/injection, schedule: Q04DX002 (ip), vehicle: saline 109 % of control

CCCCCCCCCCCCCCCCOc1ccc(C2=NCC(C)S2)c(C)c1 (centres undefined)
inactive: [2] 101 % of control | [4] 96 % of control | [6] 97 % of control

CC(C)(C)N1CCCC1
inactive: [10] 96 % of control | [11] 91 % of control | [12] 88 % of control

CC(=O)NCCCCCC(=O)Nc1ccc(Cl)c(Cl)c1
inactive: dose: 100.0 mg/kg/injection, schedule: Q01DX001 (ip), vehicle: carboxymethylcellulose (CMC) 94 % of control | dose: 200.0 mg/kg/injection, schedule: Q01DX001 (ip), vehicle: carboxymethylcellulose (CMC) 92 % of control | dose: 400.0 mg/kg/injection, schedule: Q01DX001 (ip), vehicle: carboxymethylcellulose (CMC) 92 % of control

Oc1c(CN2CCOCC2)cc(CN2CCOCC2)cc1CN1CCOCC1
inactive: [16] 116 % of control | dose: 100.0 mg/kg/injection, schedule: Q01DX009 (ip), vehicle: saline 95 % of control | [13] 104 % of control | [17] 98 % of control | dose: 200.0 mg/kg/injection, schedule: Q01DX009 (ip), vehicle: saline 90 % of control | [22] 95 % of control | [18] 96 % of control | dose: 400.0 mg/kg/injection, schedule: Q01DX009 (ip), vehicle: saline 100 % of control | [23] 98 % of control

O=C(CCN1CC1)NCCCCCCNC(=O)CCN1CC1
inactive: [7] 92 % of control | [8] 90 % of control | [9] 86 % of control

CCCCCCCCCCCCCCCCOc1ccc(C(=O)OC)cc1[N+](=O)[O-]
inactive: [13] 94 % of control | [22] 90 % of control | [23] 87 % of control

CN(C)c1ccc(N=Nc2nccs2)cc1
inactive: [13] 91 % of control | [23] 88 % of control

O=C(CCCC(=O)N/N=C/c1ccccc1C(=O)O)N/N=C\c1ccccc1C(=O)O
inactive: [21] 104 % of control | [16] 102 % of control | [17] 102 % of control | [18] 98 % of control

CN(C)C1CCC(Nc2nc(Nc3cc(Cl)cc(Cl)c3)nc3ccccc23)CC1 (centres undefined)
inactive: dose: 100.0 mg/kg/injection, schedule: Q01DX001 (ip), vehicle: saline with Tween-80 95 % of control

Nc1c(Br)cc2c(c1Br)Cc1cc([N+](=O)[O-])ccc1-2
inactive: [13] 104 % of control | [22] 103 % of control | [23] 98 % of control

CCCCCCCCCCCCCCCCCCNC(=O)Nc1ccccc1CC
inactive: dose: 100.0 mg/kg/injection, schedule: Q01DX009 (sc), vehicle: olive oil, sesame oil, peanut oil 104 % of control | dose: 100.0 mg/kg/injection, schedule: Q04DX003 (sc), vehicle: olive oil, sesame oil, peanut oil 98 % of control | dose: 200.0 mg/kg/injection, schedule: Q01DX009 (sc), vehicle: olive oil, sesame oil, peanut oil 104 % of control | dose: 200.0 mg/kg/injection, schedule: Q04DX003 (sc), vehicle: olive oil, sesame oil, peanut oil 94 % of control | dose: 400.0 mg/kg/injection, schedule: Q01DX009 (sc), vehicle: olive oil, sesame oil, peanut oil 106 % of control | dose: 400.0 mg/kg/injection, schedule: Q04DX003 (sc), vehicle: olive oil, sesame oil, peanut oil 109 % of control
